ChEMBL document CHEMBL4673197, “Microwave-assisted green synthesis of bile acid derivatives and evaluation of glucocorticoid receptor binding” (RSC Med Chem, 2021)
Calls of active or inactive are those of the source. The calls are words filed in the database; no cut-off is given here.

Assays:
Assay type in all cases: cell-based
[1] = biological target: T1, Glucocorticoid receptor (Rattus norvegicus) (UniProt P06536); assay: Binding affinity to enhanced YFP tagged rat glucocorticoid receptor (497-795)-LBD expressed in Saccharomyces cerevisiae FY250 cells by measuring increase in fluorescence intensity incubated at 100 uM for 15 hrs by fluorescence microscopy
T1 sequence (whole entry): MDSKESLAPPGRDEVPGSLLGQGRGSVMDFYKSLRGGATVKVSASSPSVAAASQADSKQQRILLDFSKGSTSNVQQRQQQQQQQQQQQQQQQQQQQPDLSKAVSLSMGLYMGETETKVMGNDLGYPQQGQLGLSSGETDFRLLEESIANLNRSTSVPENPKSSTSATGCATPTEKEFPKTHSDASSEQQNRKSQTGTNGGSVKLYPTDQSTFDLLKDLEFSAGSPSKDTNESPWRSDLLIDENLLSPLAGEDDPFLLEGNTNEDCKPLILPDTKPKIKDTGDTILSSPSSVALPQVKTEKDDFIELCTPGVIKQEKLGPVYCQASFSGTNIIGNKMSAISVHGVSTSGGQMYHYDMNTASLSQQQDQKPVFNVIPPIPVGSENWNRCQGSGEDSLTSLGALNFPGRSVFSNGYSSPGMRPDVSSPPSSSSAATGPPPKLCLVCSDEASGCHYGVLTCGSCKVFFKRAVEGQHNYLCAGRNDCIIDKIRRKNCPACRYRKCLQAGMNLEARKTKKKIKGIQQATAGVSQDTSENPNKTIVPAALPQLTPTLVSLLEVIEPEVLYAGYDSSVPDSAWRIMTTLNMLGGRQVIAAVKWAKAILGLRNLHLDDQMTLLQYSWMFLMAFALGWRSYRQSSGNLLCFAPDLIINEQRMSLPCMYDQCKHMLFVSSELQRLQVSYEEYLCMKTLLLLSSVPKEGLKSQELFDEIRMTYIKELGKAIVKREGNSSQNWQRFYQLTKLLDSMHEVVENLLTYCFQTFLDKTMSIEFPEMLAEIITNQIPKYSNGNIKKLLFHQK

[2] = biological target: T1, Glucocorticoid receptor (Rattus norvegicus); assay: Binding affinity to enhanced YFP tagged rat glucocorticoid receptor (497-795)-LBD expressed in Saccharomyces cerevisiae FY250 cells by measuring fluorescence changes incubated for 15 hrs by fluorescence spectroscopy
[3] = biological target: T1, Glucocorticoid receptor (Rattus norvegicus); assay: Binding affinity to enhanced YFP tagged rat glucocorticoid receptor (497-795)-LBD expressed in Saccharomyces cerevisiae FY250 cells by measuring fluorescence changes incubated at 100 uM for 15 hrs by fluorescence spectroscopy

`C[C@]12C=CC(=O)C=C1CC[C@@H]1[C@@H]2[C@@H](O)C[C@@]2(C)[C@H]1CC[C@]2(O)C(=O)CO` was tested, and the Activity [1] was “Active” and the Activity [2] was “Dose-dependent effect”.

With `C[C@H](CCC(=O)Nc1ccccc1)[C@H]1CC[C@H]2[C@@H]3CC[C@@H]4C[C@H](O)CC[C@]4(C)[C@H]3C[C@H](O)[C@]12C` the Activity [1] was “Active” and the Activity [3] was “Active”.

For `C[C@H](CCC(=O)O)[C@H]1CC[C@H]2[C@@H]3CC[C@@H]4CCCC[C@]4(C)[C@H]3CC[C@]12C`, the Activity [1] was “Active” and the Activity [3] was “Active”.
